Data from patent US20220079956A1, “MAINTENANCE OF AGING MUSCLE TISSUE” (BIOPHYTIS SA, priority 2011, published 2022).
pEC50: −log10 of the molar value. Values joined by “and” are separate entries in the source; they are usually repeats but may differ in a detail not shown here. Identical values can stand only once. Like-named read-outs stand apart in the source and are kept apart here.

How the values were obtained:
[1] = test system: UCP2 gene transcripts; assay: Quantity of UCP2 gene transcripts (mRNA) in muscle of high-fat diet mice; format: in vivo, male C57BL/6J mice; details: high-fat diet 3 weeks, 5 mg of 20E per kg body weight per day; vs high-fat diet alone
Description: (§1) The effect of phytoecdysones is observed on mice subjected to a high-fat diet during 3 weeks.
(§2) The HF high-fat diet involved the intake of large amounts of fat in the form of lard. The mice selected for the study were male C57BL/6J mice, 6 weeks old at the start of the experiment.
(§3) The mice in the study were grouped according to the dietary regimes and treatments to which they were subjected: normal or control diet (LF), high-fat diet (HF), high-fat diet supplemented with quinoa extract (HFQ) and high-fat diet supplemented with pure 20-hydroxyecdysone (HF20E).
(§4) The mice were subjected to the dietary regimes detailed in Table 1 below for three weeks and the mice fed a high-fat diet were treated in parallel with pure 20E or extract A (2% 20E). The concentration of 20E was adjusted to equal 40 mg per kg of food.
(§5) In light of the average food intake of the mice, the dose of 20E administered corresponded in the two treatments to 5 mg of 20E per kg of body weight per day. The food was supplied in excess every day for both dietary regimes and all three treatments. […]
(§6) FIG. 4 illustrates a graph plotting quantities of gene transcripts (mRNA), as measured in the muscle, against diet and associated treatment. The quantities have been normalized with respect to the quantities measured in the muscles of mice fed the control diet.

[2] = test system: CPT-1 intracellular fatty acid transporter gene transcripts; assay: Quantity of CPT-1 gene transcripts (mRNA) in muscle of high-fat diet mice; format: in vivo, male C57BL/6J mice; details: high-fat diet 3 weeks, 5 mg of 20E per kg body weight per day
Description: as §1, §2, §3, §4, §5, §6

[3] = test system: mice subjected to a high-fat diet; assay: Mice subjected to a high-fat diet for 3 weeks: carcass weight, quadriceps composition, energy balance; format: in vivo, male C57BL/6J mice; details: high-fat diet 3 weeks
Experimental: as §1, §2
Mice not subjected to a high fat diet, forming a normal diet control group, were tested in parallel.
as §3, §4
In light of the average food intake of the mice, the dose of 20E administered corresponded in the two treatments to 5 mg of 20E per kg of body weight per day. The food was supplied in excess every day for both dietary regimes and all three treatments. On average, 40 g of food was provided per cage per day or 6.5 g of food per mouse per day.
Table 1 below sets out in greater detail the composition of the diets to which mice were subjected:
Following sacrifice, aliquots of muscle (quadriceps) were collected for analysis. FIG. 2 illustrates a graph plotting muscle triglyceride content against diet and associated treatment.

[4] = test system: UCP3 gene transcripts; assay: Quantity of UCP3 gene transcripts (mRNA) in muscle of high-fat diet mice; format: in vivo, male C57BL/6J mice; details: high-fat diet 3 weeks, 5 mg of 20E per kg body weight per day; vs high-fat diet alone
Description: as §1, §2, §3, §4, §5, §6

[5] = test system: myostatin gene expression; assay: Myostatin gene expression in C2C12 myotubes by qRT-PCR; format: cell-based, mouse; details: 6 hours, vs untreated control
Experimental: In FIG. 11B, C2C12 mouse myoblasts were differentiated for 6 days into myotubes. They were then treated for 6 hours with concentrations of 20E ranging from 0.001 to 10 μM. Myostatin gene expression was detected by qRT-PCR. Results are shown as means±SEM with ***p<0.001, **p<0.01, *p<0.05 vs untreated control (one-way ANOVA with Dunnett's test compared to untreated control).

[6] = Single ascending dose study, clinical Phase 1: plasma levels; format: in vivo; details: human; for Cmax: plasma, SAD, read-out: Maximal plasma concentration (Cmax)
Experimental: A single ascending BIO101 dose study during clinical Phase 1 trial is performed. […] This low concentration is clearly below optimal conditions (with only 26 and 32% of efficacy for two selected markers of differentiation, see FIGS. 10A-B) and is not responsible for significant efficacy in terms of anabolism (FIGS. 11A-B).
FIG. 12A-B are graphs of plasma levels of BIO101 in human following 100, 350 and 700 mg administration.

[7] = test system: C2C12 cells; assay: Protein synthesis in differentiated C2C12 myotubes by [3H]-leucine incorporation; format: cell-based, mouse; details: 0.1 μM, vs untreated control
Description: FIGS. 11A-B are graph of effects of 20-hydroxyecdysone (20E) on protein synthesis and myostatin gene expression in C2C12 cells. […] Results are shown as means±SEM, ***p<0.001, **p<0.01, *p<0.05 vs untreated control (Kruskal-Wallis followed by a Dunn's test).

[8] = test system: C2C12 myoblast; assay: C2C12 myoblast differentiation (fusion index, number of nuclei per myotube); format: cell-based, mouse; details: for pEC50: C2C12 myoblasts, 6-day differentiation in the presence of the drug, read-out: EC50 for number of nuclei per myotube increase
Experimental: FIGS. 10A-B are graphs of BIO101 efficacy 50% value (EC50) determination on myoblasts differentiation. The fusion index and number of nuclei per myotubes were measured after 6-day differentiation in the presence of the drug.
The fusion index and the number of nuclei per myotube are recognized parameters of myoblast differentiation. The fusion index was calculated as the ratio of nuclei in fused MHC-positive cells 2 nuclei per cells) to the total nuclei number. […] EC50 values (efficacious doses 50%) for each parameter were calculated by the integration of effect vs [BIO101] curves.

[9] = test system: sarcopenic patients; assay: Clinical trial in sarcopenic patients: gait speed in 400 meters walking test; format: in vivo, human; details: 6 months; for improvement in gait speed in 400 meters walking test compared to placebo: 700 mg daily
Description: After 6 months of treatment, an improvement of 0.09 m/s in the full analyze set (FAS) population and 0.10 m/s in the per protocol (PP) population (treatment effect significant, p<0.01) were observed. This effect of Sarconeos (BIO101) corresponds to the minimal clinically important difference (MCID) in sarcopenia (0.1 m/s), associated with a reduction in mobility and disability in elderly (Perera et al. 2006).

[10] = Multiple ascending dose study, clinical Phase 1: adverse events; format: in vivo; details: human, daily administrations of 900 mg, MAD
Experimental: A multiple ascending BIO101 dose study was performed during clinical Phase 1 trial. […] For this reason, in clinical Phase 2, the daily dose of 900 mg was not tested.

SMILES: CC(C)(O)CC[C@@H](O)[C@](C)(O)[C@H]1CC[C@@]2(O)C3=CC(=O)[C@@H]4C[C@@H](O)[C@@H](O)C[C@]4(C)[C@H]3CC[C@]12C [20E, 20-hydroxyecdysone]
- quantity of UCP2 gene transcripts in muscle [1]: tendency to increased quantities
- quantity of CPT-1 gene transcripts in muscle [2]: tends to restore transcript levels to those seen for the control diet
- energy expenditure higher than high-fat diet alone ([3]; 5 mg of 20E per kg body weight per day): 9%
- food intake (energy, kcal) ([3]; 5 mg of 20E per kg body weight per day, compared with animals fed the standard diet): same amount of energy
- higher muscle protein content (quadriceps) ([3]; 5 mg of 20E per kg body weight per day, trend, compared to HF treatment alone): 5%
- lower muscle triglyceride content (quadriceps) ([3]; 5 mg of 20E per kg body weight per day, trend, vs high-fat diet alone): 26%
- lean body mass (carcass defatted) / carcass weight ([3]; 5 mg of 20E per kg of body weight per day in food, vs high-fat diet alone): increase that has allowed the mice to return virtually to the same level as the normal diet
- quantity of UCP3 gene transcripts in muscle [4]: increase

SMILES: CC(C)(O)CC[C@@H](O)[C@](C)(O)[C@H]1CC[C@@]2(O)C3=CC(=O)[C@@H]4C[C@@H](O)[C@@H](O)C[C@]4(C)[C@H]3CC[C@]12C [BIO101]
- inhibition of myostatin gene expression ([5]; 0.1 μM): not yet significant
- inhibition of myostatin gene expression ([5]; concentration equal or higher than 0.5 μM): significant
- plasma exposure (maximal concentration from plot vs administered dose) ([6]; 175 mg administration (5 mg/kg for a 35 kg patient), read from FIG. 12B): 0.4 µM
- Cmax ([6]; 100 mg dose): 260 nM and 126 ng/mL
- Cmax ([6]; 350 mg dose): 630 nM and 304 ng/mL
- Cmax ([6]; 700 mg dose): 780 nM and 374 ng/mL
- effect on protein synthesis [7]: not yet significant
- pEC50 [8]: 6.26
- pEC50 ([8]; Mus musculus, C2C12, 144 h): 6.25
- % of efficacy on differentiation marker (first marker, fusion index) ([8]; at 0.26 μM, the plasma peak of a 100 mg dose, read from FIG. 10A): 26%
- % of efficacy on differentiation marker (second marker, number of nuclei per myotube) ([8]; at 0.26 μM, the plasma peak of a 100 mg dose, read from FIG. 10B): 32%
- gait speed in 400 meters walking test compared to placebo ([9]; 350 mg daily, notably in a frail sub population of the FAS): improvement
- improvement in gait speed in 400 meters walking test compared to placebo ([9]; full analyze set (FAS) population): 0.09 m/s
- improvement in gait speed in 400 meters walking test compared to placebo ([9]; per protocol (PP) population, p<0.01): 0.10 m/s
- treatment-related TEAEs (treatment-emergent adverse events) [10]: high number of subjects with treatment-related TEAEs
